# Test system: not listed separately
# Assay: in vitro
# Settings: human, wild-type HepG2 cells (ATCC)
row,SMILES,CC50 [µM]
1,c1ccc(CNc2ncnc3c2[nH]c2ccccc23)cc1 [Compound 16],> 24.8
2,Cc1ccc(Nc2nc3nonc3nc2NC(C)C)cc1C [Compound 4],11.4
3,COc1cccc(CN2CCC3(CC2)NCCc2c3[nH]c3ccccc23)c1 [Compound 17],> 24.8
4,CNc1cc(Cl)c2nonc2c1[N+](=O)[O-] [Compound 3],> 25.4
5,O=S(=O)(Nc1nccs1)c1ccc(NC(=S)Nc2ccccc2)cc1 [Compound 9],> 24.8
6,O=C(CCn1cnc2ccccc2c1=O)Nc1cccc(Cl)c1 [Compound 15],> 24.8
7,N#Cc1cccc(NC(=O)Nc2cccc(Cl)c2)c1 [Compound 6],21.1
8,Cc1cc(F)ccc1NC(=S)Nc1ccc(S(=O)(=O)Nc2ncccn2)cc1 [Compound 11],> 24.8
9,N#Cc1ccc(NC(=O)Nc2cccc(Cl)c2)cc1 [Compound 7],23.8
10,O=S(=O)(Nc1nccs1)c1ccc(NC(=S)Nc2ccc(F)cc2)cc1 [Compound 10],> 24.8
11,Cc1c(Nc2nc3nonc3nc2Nc2ccc(F)cc2)c(=O)n(-c2ccccc2)n1C [Compound 5],20.6
12,CCOC(=O)c1cccc(-n2cc(Nc3nnnn3-c3ccccc3)cn2)c1 [Compound 14],> 24.8
13,O=[N+]([O-])c1c(Nc2ccccc2)cc(Cl)c2nonc12 [Compound 2],> 20

# Test system: PAO1
# Assay: microbe, parasite or virus in culture
# Type: cell-based
# Settings: Pseudomonas aeruginosa, PAO1, read-out: PAO01 IC50 (μM)
row,SMILES,IC50 [µM]
1,c1ccc(CNc2ncnc3c2[nH]c2ccccc23)cc1 [Compound 16],≥ 55
2,Cc1ccc(Nc2nc3nonc3nc2NC(C)C)cc1C [Compound 4],≥ 55
3,COc1cccc(CN2CCC3(CC2)NCCc2c3[nH]c3ccccc23)c1 [Compound 17],28.2
4,COc1cc(NC(=O)c2cccc(-n3cc(Nc4nnnn4-c4ccccc4)cn3)c2)ccc1N1CCOCC1 [Compound 13],95.7
5,O=S(=O)(Nc1nccs1)c1ccc(NC(=S)Nc2ccccc2)cc1 [Compound 9],≥ 55
6,O=C(CCn1cnc2ccccc2c1=O)Nc1cccc(Cl)c1 [Compound 15],38.6
7,N#Cc1cccc(NC(=O)Nc2cccc(Cl)c2)c1 [Compound 6],55
8,O=C(Nc1ccc([N+](=O)[O-])cc1)NC(C(F)(F)F)C(F)(F)F [Compound 8],39.5
9,Cc1cc(F)ccc1NC(=S)Nc1ccc(S(=O)(=O)Nc2ncccn2)cc1 [Compound 11],≥ 55
10,N#Cc1ccc(NC(=O)Nc2cccc(Cl)c2)cc1 [Compound 7],≥ 55
11,O=C(Nc1ccc(N2CCOCC2)cc1)c1cccc(-n2cc(Nc3nnnn3C3CCCCC3)cn2)c1 [Compound 12],103
12,O=S(=O)(Nc1nccs1)c1ccc(NC(=S)Nc2ccc(F)cc2)cc1 [Compound 10],≥ 55
13,Cc1c(Nc2nc3nonc3nc2Nc2ccc(F)cc2)c(=O)n(-c2ccccc2)n1C [Compound 5],42
14,CCOC(=O)c1cccc(-n2cc(Nc3nnnn3-c3ccccc3)cn2)c1 [Compound 14],≥ 55
15,O=[N+]([O-])c1c(Nc2ccccc2)cc(Cl)c2nonc12 [Compound 2],18

# Test system: NRS135 gram-positive S. aureus strain expressing NorA::tetM
# Assay: microbe, parasite or virus in culture
# Type: cell-based
# Settings: Staphylococcus aureus, NRS135, read-out: NRS135 IC50 (μM)
row,SMILES,IC50 [µM]
1,c1ccc(CNc2ncnc3c2[nH]c2ccccc23)cc1 [Compound 16],≥ 55
2,Cc1ccc(Nc2nc3nonc3nc2NC(C)C)cc1C [Compound 4],26.5
3,COc1cccc(CN2CCC3(CC2)NCCc2c3[nH]c3ccccc23)c1 [Compound 17],≥ 55
4,COc1cc(NC(=O)c2cccc(-n3cc(Nc4nnnn4-c4ccccc4)cn3)c2)ccc1N1CCOCC1 [Compound 13],15.6
5,O=S(=O)(Nc1nccs1)c1ccc(NC(=S)Nc2ccccc2)cc1 [Compound 9],21.9
6,O=C(CCn1cnc2ccccc2c1=O)Nc1cccc(Cl)c1 [Compound 15],47.4
7,N#Cc1cccc(NC(=O)Nc2cccc(Cl)c2)c1 [Compound 6],19.8
8,O=C(Nc1ccc([N+](=O)[O-])cc1)NC(C(F)(F)F)C(F)(F)F [Compound 8],18.1
9,Cc1cc(F)ccc1NC(=S)Nc1ccc(S(=O)(=O)Nc2ncccn2)cc1 [Compound 11],≥ 55
10,N#Cc1ccc(NC(=O)Nc2cccc(Cl)c2)cc1 [Compound 7],9.77
11,O=C(Nc1ccc(N2CCOCC2)cc1)c1cccc(-n2cc(Nc3nnnn3C3CCCCC3)cn2)c1 [Compound 12],38.7
12,O=S(=O)(Nc1nccs1)c1ccc(NC(=S)Nc2ccc(F)cc2)cc1 [Compound 10],17.5
13,Cc1c(Nc2nc3nonc3nc2Nc2ccc(F)cc2)c(=O)n(-c2ccccc2)n1C [Compound 5],9.37
14,CCOC(=O)c1cccc(-n2cc(Nc3nnnn3-c3ccccc3)cn2)c1 [Compound 14],43.6
15,O=[N+]([O-])c1c(Nc2ccccc2)cc(Cl)c2nonc12 [Compound 2],2.47

# Test system: E. coli W3110 a TolC::Tn10 inclusive strain
# Assay: microbe, parasite or virus in culture
# Type: cell-based
# Settings: Escherichia coli, read-out: W3110 IC50 (μM)
row,SMILES,IC50 [µM]
1,c1ccc(CNc2ncnc3c2[nH]c2ccccc23)cc1 [Compound 16],15.9
2,Cc1ccc(Nc2nc3nonc3nc2NC(C)C)cc1C [Compound 4],6.29
3,COc1cccc(CN2CCC3(CC2)NCCc2c3[nH]c3ccccc23)c1 [Compound 17],47.4
4,COc1cc(NC(=O)c2cccc(-n3cc(Nc4nnnn4-c4ccccc4)cn3)c2)ccc1N1CCOCC1 [Compound 13],8.71
5,O=S(=O)(Nc1nccs1)c1ccc(NC(=S)Nc2ccccc2)cc1 [Compound 9],3.8
6,O=C(CCn1cnc2ccccc2c1=O)Nc1cccc(Cl)c1 [Compound 15],0.873
7,N#Cc1cccc(NC(=O)Nc2cccc(Cl)c2)c1 [Compound 6],5.99
8,O=C(Nc1ccc([N+](=O)[O-])cc1)NC(C(F)(F)F)C(F)(F)F [Compound 8],8.89
9,Cc1cc(F)ccc1NC(=S)Nc1ccc(S(=O)(=O)Nc2ncccn2)cc1 [Compound 11],7.08
10,N#Cc1ccc(NC(=O)Nc2cccc(Cl)c2)cc1 [Compound 7],3.82
11,O=C(Nc1ccc(N2CCOCC2)cc1)c1cccc(-n2cc(Nc3nnnn3C3CCCCC3)cn2)c1 [Compound 12],29.1
12,O=S(=O)(Nc1nccs1)c1ccc(NC(=S)Nc2ccc(F)cc2)cc1 [Compound 10],4
13,Cc1c(Nc2nc3nonc3nc2Nc2ccc(F)cc2)c(=O)n(-c2ccccc2)n1C [Compound 5],3.77
14,CCOC(=O)c1cccc(-n2cc(Nc3nnnn3-c3ccccc3)cn2)c1 [Compound 14],14.6
15,O=[N+]([O-])c1c(Nc2ccccc2)cc(Cl)c2nonc12 [Compound 2],15.2

# Test system: PAO200 P. aeruginosa bacteria, the MexAB-OprM efflux pump minus strain of PAO1
# Assay: microbe, parasite or virus in culture
# Type: cell-based
# Settings: Pseudomonas aeruginosa, PAO1, read-out: PAO200 IC50 (μM)
row,SMILES,IC50 [µM]
1,c1ccc(CNc2ncnc3c2[nH]c2ccccc23)cc1 [Compound 16],41.5
2,Cc1ccc(Nc2nc3nonc3nc2NC(C)C)cc1C [Compound 4],24.7
3,COc1cccc(CN2CCC3(CC2)NCCc2c3[nH]c3ccccc23)c1 [Compound 17],39
4,COc1cc(NC(=O)c2cccc(-n3cc(Nc4nnnn4-c4ccccc4)cn3)c2)ccc1N1CCOCC1 [Compound 13],13.9
5,O=S(=O)(Nc1nccs1)c1ccc(NC(=S)Nc2ccccc2)cc1 [Compound 9],12.3
6,O=C(CCn1cnc2ccccc2c1=O)Nc1cccc(Cl)c1 [Compound 15],2.7
7,N#Cc1cccc(NC(=O)Nc2cccc(Cl)c2)c1 [Compound 6],24.7
8,O=C(Nc1ccc([N+](=O)[O-])cc1)NC(C(F)(F)F)C(F)(F)F [Compound 8],31.5
9,Cc1cc(F)ccc1NC(=S)Nc1ccc(S(=O)(=O)Nc2ncccn2)cc1 [Compound 11],28.2
10,N#Cc1ccc(NC(=O)Nc2cccc(Cl)c2)cc1 [Compound 7],24.7
11,O=C(Nc1ccc(N2CCOCC2)cc1)c1cccc(-n2cc(Nc3nnnn3C3CCCCC3)cn2)c1 [Compound 12],22.3
12,O=S(=O)(Nc1nccs1)c1ccc(NC(=S)Nc2ccc(F)cc2)cc1 [Compound 10],12.5
13,Cc1c(Nc2nc3nonc3nc2Nc2ccc(F)cc2)c(=O)n(-c2ccccc2)n1C [Compound 5],39.2
14,CCOC(=O)c1cccc(-n2cc(Nc3nnnn3-c3ccccc3)cn2)c1 [Compound 14],20.5
15,O=[N+]([O-])c1c(Nc2ccccc2)cc(Cl)c2nonc12 [Compound 2],1.3

# Reference: patent US20260021071A1, “SMALL MOLECULE BROAD-SPECTRUM ANTIBIOTICS” (University of Florida Research Foundation, Incorporated, priority 2022, published 2026)
